Laboratory results from patent US20030144360A1, “Composition and method for modulating BAR/FXR receptor activity” (Allergan Sales, Inc., priority 2001, published 2003).
Several values for one entry are separate records, joined by “and”; a condition that tells them apart may be missing. Equal entries are not always repeated.

Biological target: T1, MFXR / HRXRop (UniProt P19793+Q60641)
T1 sequence (Q60641 1-488): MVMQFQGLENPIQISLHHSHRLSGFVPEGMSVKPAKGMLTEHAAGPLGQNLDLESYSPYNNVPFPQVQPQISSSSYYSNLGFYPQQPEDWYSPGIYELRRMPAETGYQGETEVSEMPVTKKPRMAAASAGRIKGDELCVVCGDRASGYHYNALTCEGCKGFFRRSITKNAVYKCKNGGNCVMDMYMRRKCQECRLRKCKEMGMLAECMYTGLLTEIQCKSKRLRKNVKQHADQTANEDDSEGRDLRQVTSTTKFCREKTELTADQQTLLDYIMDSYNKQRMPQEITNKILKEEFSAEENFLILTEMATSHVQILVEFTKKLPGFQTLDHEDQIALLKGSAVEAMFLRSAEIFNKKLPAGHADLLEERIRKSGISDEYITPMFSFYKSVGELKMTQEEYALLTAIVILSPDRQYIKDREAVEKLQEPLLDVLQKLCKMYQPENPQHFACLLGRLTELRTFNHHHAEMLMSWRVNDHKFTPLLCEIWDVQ
T1 sequence (P19793 1-462): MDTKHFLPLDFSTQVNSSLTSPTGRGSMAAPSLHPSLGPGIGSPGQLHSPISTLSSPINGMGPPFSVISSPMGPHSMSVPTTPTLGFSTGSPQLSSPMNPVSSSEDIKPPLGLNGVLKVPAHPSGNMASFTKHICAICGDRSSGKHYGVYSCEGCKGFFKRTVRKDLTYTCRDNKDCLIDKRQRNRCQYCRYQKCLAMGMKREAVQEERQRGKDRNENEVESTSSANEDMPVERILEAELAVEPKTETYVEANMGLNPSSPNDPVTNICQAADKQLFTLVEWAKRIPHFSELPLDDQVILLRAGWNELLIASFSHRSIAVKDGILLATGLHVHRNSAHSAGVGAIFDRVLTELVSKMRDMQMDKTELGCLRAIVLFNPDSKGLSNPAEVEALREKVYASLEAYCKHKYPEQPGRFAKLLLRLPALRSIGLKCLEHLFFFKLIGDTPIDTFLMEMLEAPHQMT
Experiment: Co-transfection luciferase assay, EcRE × 6 reporter, MFXR + HRXRop;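 also: CV-1 African green monkey cells, liposome transfection with a β-galactosidase vector serving as internal control, luciferase chemiluminescence read after roughly 40 h compound exposure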

Fold Activation (0.1 μM LG268 + 0.01 μM AGN 34): 27.08 fold | Reporter Activity (0.1 μM LG268 + 0.01 μM AGN 34): 6.73 | Fold Activation (0.1 μM LG268 + 0.1 μM AGN 34): 1.56 fold | Reporter Activity (0.1 μM LG268 + 0.1 μM AGN 34): 0.39 | Fold Activation (0.1 μM LG268 + 1 μM AGN 34): 1.07 fold | Reporter Activity (0.1 μM LG268 + 1 μM AGN 34): 0.27 | Fold Activation (0.1 μM LG268 + 3 μM AGN 34): 1.04 fold | Reporter Activity (0.1 μM LG268 + 3 μM AGN 34): 0.26 | Fold Activation (0.1 μM LG268 + 10 μM AGN 34): 1.18 fold | Reporter Activity (0.1 μM LG268 + 10 μM AGN 34): 0.29 | Fold Activation (10 μM AGN 34 alone): 1.18 fold and 1.39 fold | Reporter Activity (10 μM AGN 34 alone): 0.26 and 0.35 | Fold Activation (50 μM CDCA + 0.01 μM AGN 34): 19.61 fold | Reporter Activity (50 μM CDCA + 0.01 μM AGN 34): 4.37 | Fold Activation (50 μM CDCA + 0.1 μM AGN 34): 10.99 fold | Reporter Activity (50 μM CDCA + 0.1 μM AGN 34): 2.45 | Fold Activation (50 μM CDCA + 1 μM AGN 34): 6.19 fold and 5.26 fold | Reporter Activity (50 μM CDCA + 1 μM AGN 34): 1.38 | Fold Activation (50 μM CDCA + 3 μM AGN 34): 5.77 fold | Reporter Activity (50 μM CDCA + 3 μM AGN 34): 1.29 | Fold Activation (50 μM CDCA + 10 μM AGN 34): 6.11 fold | Reporter Activity (50 μM CDCA + 10 μM AGN 34): 1.36
SMILES: CCCCCCOc1c(\C(C)=C/C=C/C(C)=C/C(=O)O)cc(C(C)C)cc1C(C)C [AGN 34, (2E, 4E, 6Z)-7-(2-Hexyloxy-3,5-diisopropylphenyl)-3-methylocta-2,4,6-trienoic Acid]
